These results are taken from patent publication US5385910A, “Gem-distributed esters of rapamycin” (American Home Products Corporation, priority 1993, dated 1995).

Experiment [1] concerns thymus cells of normal BALB/c mice (PHA and IL-1 induced lymphocyte proliferation). The experiment in a line: comitogen-induced thymocyte proliferation procedure (LAF). It is filed as cell-based. The conditions noted are these: thymocytes cultured 72 hours with PHA and IL-1; tritiated thymidine last six hours; maleate salt; read-out: LAF IC50. As to the method: (§1) Immunosuppressive activity for representative compounds of this invention was evaluated in an in vitro standard pharmacological test procedure to measure lymphocyte proliferation (LAF) and in three in vivo standard pharmacological test procedures. The pinch skin graft test procedure measures the immunosuppressive activity of the compound tested as well as the ability of the compound tested to inhibit or treat transplant rejection. The adjuvant arthritis standard pharmacological test procedure, which measures the ability of the compound tested to inhibit immune mediated inflammation. The adjuvant arthritis test procedure is a standard pharmacological test procedure for rheumatoid arthritis. Representative compounds of this invention were also evaluated in a heart allograft standard pharmacological test procedure which measures immunosuppressive activity of the compound tested as well as the ability of the compound tested to inhibit or treat transplant rejection. The procedures for these standard pharmacological test procedures are provided below.
The comitogen-induced thymocyte proliferation procedure (LAF) was used as an in vitro measure of the immunosuppressive effects of representative compounds. Briefly, cells from the thymus of normal BALB/c mice are cultured for 72 hours with PHA and IL-1 and pulsed with tritiated thymidine during the last six hours. Cells are cultured with and without various concentrations of rapamycin, cyclosporin A, or test compound. Cells are harvested and incorporated radioactivity is determined. Inhibition of lymphoproliferation is assessed as percent change in counts per minute from non-drug treated controls. For each compound evaluated, rapamycin was also evaluated for the purpose of comparison. An IC50 was obtained for each test compound as well as for rapamycin. […] The results obtained are provided as an IC50.

In experiment [2] the test system is pinch skin graft from male BALB/c donors transplanted to male C3 H(H-2K) recipients. The experiment can be described thus: pinch skin graft survival test procedure. It is filed as in vivo, C3 H(H-2K) recipients (mice). The conditions noted are these: 4 mg/kg, intraperitoneally or orally; untreated grafts rejected within 6-7 days; maleate salt.
Method: Representative compounds of this invention were also evaluated in an in vivo test procedure designed to determine the survival time of pinch skin graft from male BALB/c donors transplanted to male C3 H(H-2K) recipients. […] Briefly, a pinch skin graft from the donor was grafted on the dorsum of the recipient as a allograft, and an isograft was used as control in the same region. The recipients were treated with either varying concentrations of test compounds intraperitoneally or orally. Rapamycin was used as a test control. Untreated recipients serve as rejection control. The graft was monitored daily and observations were recorded until the graft became dry and formed a blackened scab. This was considered as the rejection day. The mean graft survival time (number of days±S.D.) of the drug treatment group was compared with the control group. […] Results are expressed as the mean survival time in days. Untreated (control) pinch skin grafts are usually rejected within 6-7 days. Compounds were tested using a dose of 4 mg/kg.
In experiment [3] the test system is heart allograft from BN rat neonate donors in Lewis rats. The experiment can be described thus: heterotropic heart allograft standard pharmacological test procedure. It is filed as in vivo. The following applies: 300 μg/day, i.p.; untreated allografts rejected in about 9-10 days. The procedure:
as §1
The ability of the compounds of this invention to induce immunosuppression and inhibit or treat transplantation rejection was evaluated in a heterotropic heart allograft standard pharmacological test procedure that emulates transplantation rejection that occurs in humans. The following briefly describes the procedure that was used. […]

The test system of experiment [4] is Freud's Complete Adjuvant induced arthritis in rats. The experiment in a line: adjuvant arthritis standard pharmacological test procedure. It is filed as in vivo, male inbread Wistar Lewis rats. The following applies: 5 mg/kg oral, 7 doses, day 16; more negative = more potent. As to the method: as §1, with “The procedures for these standard pharmacological test procedures are provided below.” left out
The adjuvant arthritis standard pharmacological test procedure measures the ability of test compounds to prevent immune mediated inflammation and inhibit or treat rheumatoid arthritis. […] Both hind paws are measured on days 16, 23, and 30. The difference in paw volume (mL) from day 16 to day 0 is determined and a percent change from control is obtained. […]

Each structure is given as a SMILES string. “And” between values parts separate entries of the source, which are not always exact repeats. Equal values may be shown once. Where a name gives a salt, the structure may show the parent alone.

In general, IC50 refers to the concentration at which inhibition is half-maximal.

Consider `CO[C@H]1C[C@@H]2CC[C@@H](C)[C@@](O)(O2)C(=O)C(=O)N2CCCC[C@H]2C(=O)O[C@H]([C@H](C)C[C@@H]2CC[C@@H](OC(=O)C(C)(C)N)[C@H](OC)C2)CC(=O)[C@H](C)/C=C(\C)[C@@H](O)[C@@H](OC)C(=O)[C@H](C)C[C@H](C)/C=C/C=C/C=C/1C` [Example 6, Rapamycin 42-ester with 2-amino-2-methylpropionic acid maleate salt], for which the IC50 in experiment [1] is 5.3 nM and 8.4 nM. Moreover, in experiment [2], the “Skin graft survival time (mean survival time ± S.D.)” value was 12.0 ± 0.0 days and 11.0 ± 0.9 days. The “Heart allograft survival time (mean)” value in experiment [3] worked out at 19.11 days. In addition, in experiment [4], the “Percent change in adjuvant arthritis versus control (uninjected paw)” value is -73%.
